In ChEMBL document CHEMBL3867475, “Discovery of furo[2,3-d][1,3]thiazinamines as beta amyloid cleaving enzyme-1 (BACE1) inhibitors” (Bioorg Med Chem Lett, 2016):

Tests used:
[1] = Chemical stability of compound in aqueous condition at pH 1 to 10 at 40 degC measured up to 24 hrs; assay type: physicochemical; conditions: buffer, pH 1, 24 h
[2] = Permeability from basolateral side to apical side in human Caco2 cells; assay type: ADME, cell-based; conditions: Caco-2, read-out: permeability
[3] = Permeability from apical side to basolateral side in human Caco2 cells; assay type: ADME, cell-based; conditions: Caco-2, read-out: permeability

Row | SMILES | Stability [1] | Papp B→A [2] [×10⁻⁶ cm/s] | Papp A→B [3] [×10⁻⁶ cm/s]
1 | NC1=N[C@@]2(c3cc(NC(=O)c4ccc(Cl)cn4)ccc3F)OCC[C@H]2CS1 | Stable | 24.4 | 17.7
2 | N#Cc1ccc(C(=O)Nc2ccc(F)c([C@@]34N=C(N)SC[C@@H]3CCO4)c2)nc1 | Stable | 54.2 | 16.4
3 | NC1=N[C@@]2(c3cc(NC(=O)c4ccc(F)cn4)ccc3F)OCC[C@H]2CS1 | Stable | – | –
4 | NC1=N[C@@]2(c3cc(NC(=O)c4ncc(Cl)cc4Cl)ccc3F)OCC[C@H]2CS1 | Stable | – | –
5 | NC1=N[C@@]2(c3cc(NC(=O)c4ccc(Br)cn4)ccc3F)OCC[C@H]2CS1 | Stable | – | –
6 | NC1=N[C@@]2(c3cc(NC(=O)c4ncccc4F)ccc3F)OCC[C@H]2CS1 | Stable | – | –
7 | NC1=N[C@@]2(c3cc(NC(=O)c4ccccn4)ccc3F)OCC[C@H]2CS1 | Stable | – | –
8 | NC1=N[C@@]2(c3cc(NC(=O)c4ccc(OC(F)F)cn4)ccc3F)OCC[C@H]2CS1 | Stable | – | –
9 | COc1cnc(C(=O)Nc2ccc(F)c([C@@]34N=C(N)SC[C@@H]3CCO4)c2)cn1 | Stable | – | –
